Test results published in patent publication US5998580A, “Photosensitive caged macromolecules” (priority 1995, dated 1999).
Where no end group is shown, it is not given here. The star is where a group is joined. α‑carboxy 2‑nitrobenzyl = O=C(O)C(c1ccccc1[N+](=O)[O-])*

Assays:
[1] = system: single smooth muscle cells; assay: calcium-dependent enhancement of calcium (inward) current after repetitive depolarization in single smooth muscle cells; assay type: cell-based; settings: cell injected with peptide
Experimental: The in vivo effects of 1-CAG-RS-20 on calcium-dependent enhancement of calcium current in smooth muscle were evaluated according to the methods described by McCarron et al. (Nature 357: 74-77). Photolysis of 1-CAG-RS-20 was accomplished by selectively exposing cells to a beam of UV irradiation using a light source fitted with a controllable shutter. In addition, experiments were carried out by recording phase contrast images in the far red portion of the spectrum to monitor the effects of 1-CAG-RS-20 on the contractile responses of the cells to Ca^2+ influx resulting from depolarization. Data was analyzed according to the methods described in Itoh et al. (Nature 338: 164-167, 1989).
Shown in these panels (FIG. 3) are the inward currents resulting from depolarization both before and after the train of depolarizing pulses. The trace labelled #1 was obtained before the train and that after the train is labelled #2 (FIG. 3C).

[2] = target: T1, calmodulin (Homo sapiens, UniProt P0DP23); assay: binding to calmodulin agarose column before and after photolysis
T1 construct: purchased Sigma Chemical Co
Experimental: The 1-CAG-RS-20 was evaluated for its ability to bind a calmodulin agarose column before and after photolysis. This experiment was carried out as follows. 5 mls of calmodulin agarose (Sigma Chemical Co.) was poured into a 1 cm×10 cm glass column and equilibrated with 50 mM Tris pH 7.5, 1 mM CaEGTA, pCa 4.5 (where pCa=-log free […]. 100 nmoles 1CAGRS-20 in 1 ml of the same solution was loaded onto the column and eluted with the same solution while 14×1.5 ml fractions were collected. The elutant was then changed to 50 mM Tris pH 7.5, 1 mM EGTA, pCa 9 and 14×1.5 ml additional fractions were collected. Each fraction was analyzed for peptide by UV absorbance at 272 nm. A second 100 nmole aliquot of 1-CAG-RS-20 was irradiated by the standard photolysis protocol (see below) and loaded onto the calmodulin agarose column after extensive washing and reequilibration in the original pCa 4.5 solution.
(§1) The standard photolysis protocol involves exposure of caged peptide (0.1 to 1 ml; 0.1 mM to 1 mM in 50 mM Tris pH 7.5) in a quartz cuvette (1 cm path length) to the beam of a continuous 75 watt Xenon arc lamp that is filtered through a 300-350 nm band pass filter (UG-11 filter). This standard in vitro photolysis protocol was carried out for 30 minutes at room temperature.

[3] = system: Smooth muscle myosin light chain kinase (MLCK); assay: inhibition of smooth muscle myosin light chain kinase (MLCK) activity, 32P incorporation into light chain; assay type: biochemical; settings: before photolysis; 100 nM calmodulin
Experimental: as §1
Smooth muscle myosin light chain kinase (MLCK) (0.5 μg/ml) was incubated with various concentrations of synthetic caged peptide (e.g., 1-CAG-RS-20 and 9-NPG-RS-20) in the presence of 100 nM calmodulin, 0.1 mM CaCl2, 100 mM KCL, 0.2 mg/ml myosin regulatory light chain, 1 mM MgCl2, and 30 mM Tris-HCL (pH 7.5) at 25° C. for 5 minutes. 1-CAG-RS-20 and 9-NPG-RS-20 were photolyzed using the standard photolysis protocol (see above) and the uncaged peptide was purified away from by-products and caged peptides prior to the enzymatic assay using reverse phase HPLC. The phosphorylation reaction was started by adding 50 μM ^32 P-ATP. The incorporation of ^32 P into the light chain was measured by scintillation counter and the inhibitory effect of the peptide on myosin light chain kinase was determined.

[4] = system: toad stomach smooth muscle cells; assay: rate of shortening of single smooth muscle cells (calcium-mediated contraction); assay type: cell-based; settings: 200 μM; after photolysis versus without photolysis (FIG. 5)
Experimental: The in vivo effects of 1-CAG-RS-20 (200 μM) on the rate of shortening of single smooth muscle cells both before and after UV exposure was performed essentially as described in Itoh et al. (Nature 338: 164-67, 1989). Images of the cells were recorded using phase contrast optics and measurements of cell length were carried out as described by Itoh et al., supra. An interactive computer analysis program was used to measure cell length at successive intervals after the onset of cell membrane depolarization and subsequent increase in cytoplasmic Ca^2+ concentration that normally triggers contraction.

1-CAG-RS-20: RS-20 caged analog containing caged tyrosine (α-carboxy 2-nitrobenzyl) at position 5 (ARRKY(α‑carboxy 2‑nitrobenzyl)QKTGHAVRAIGRLSS)
enhancement of inward current following a train of depolarizing stimuli ([1]; following photolysis (FIG. 3D)): blocked | enhancement of inward current following a train of depolarizing stimuli ([1]; prior to exposure to ultraviolet light (FIG. 3C)): the inward current was enhanced | binding to calmodulin agarose column ([2]; before photolysis, in the presence of Ca2+ (pCa 4.5), 100 nmoles loaded): does not bind appreciably | binding to calmodulin agarose column ([2]; following photolysis, in the presence of Ca2+, binding reversed by EGTA): binds strongly | inhibition of MLCK activity [3]: failed to significantly inhibit MLCK activity | rate of cell shortening [4]: shortened more slowly
